This is an account of results in patent publication US10040779B2, “Histone demethylase inhibitors” (priority 2012, dated 2018).

The experiment deals with KDM5A and KDM5B. Description: In vitro cell-based assay: tri-methyl H3K4 immuno-blotting in ZR-75-1 breast cancer cells. Conditions: 72 hr, read-out: Cellular IC50. As for the experimental part:
This quantitative immuno-blotting assay measures the amount tri-methylated histone H3 at amino acid Lysine number 4, a specific substrate […] of the direct enzymatic activity of the histone demethylases KDM5A and KDM5B from extracts of the ZR-75-1 breast cancer cell line.
This assay is a fluorometric immunoassay for the quantification of tri-methyl H3K4 extracted from cells treated with test compound and is used as a measure of the cellular inhibition of KDM5A/B.
Extracts were prepared containing all of the cellular histone material using detergent based lysis and sonication methods. These lysates were subsequently normalized for total protein content using a colorimetric bicinchonic acid assay (MicroBCA Pierce/Thermo Scientific). Normalized cell extracts were then subjected to typical immuno-blotting procedures using NuPage reagents (Life Technologies). […] The amount of tri-methylated lysine 4 of histone H3 was detected using an antibody specific to the tri-methylated state (Cell Signaling Technologies) and quantified on an infrared imager using a densitometry software package (Odyssey CLx, Image Studio, Li-Cor). This background subtracted densitometry value was reported as a ration of the GAPDH amount for that sample and then calculated as a percent of the DMSO treated sample.

The term IC50 denotes the concentration that inhibits the measured activity by half. For the compound `O=C(O)c1ccncc1Nc1cn(C2CCOC2)c2ccc(F)cc12` (stereo not shown) [Example 68, 3-{[5-fluoro-1-(tetrahydrofuran-3-yl)-1H-indol-3-yl]amino}pyridine-4-carboxylic acid], the IC50 was 1 to 10 µM.
